Results taken from patent US20070293517A1, “Derivatives Of Chemotherapeutic Agents With A Formaldehyde Releasing Moiety” (RAMOT AT TEL AVIV UNIVERSITY LTD., priority 2004, published 2007).
Blank lines part the entries; values can stand above or below the molecule they belong to.

Tests used:
colon carcinoma cells = assay: Viability of colon carcinoma cells (FIG. 12); format: cell-based
Description: (§1) Proliferation assay: cells at a density of 3-5×10^4 cells/ml in 200 μl medium supplemented with 10% FCS were seeded in tissue culture 96-well plates for 24 hours, and were then exposed for 72 hours to a novel derivative of a chemotherapeutic agent (in quadruplicate) as specified. After 3 days, the cells were rinsed with PBS, and fixed with ethanol (70%) for 30 minutes. The ethanol was thereafter discarded, 200 μl of 10 μg/ml HOECHST fluorescent dye (Sigma) solubilized in PBS were added and the fluorescence was measured at 390-460 nm with a FluoStar fluorometer. MTT solution (10 ml of 5 mg/ml MTT (Sigma) in PBS) was added, and the plate was incubated for 3 hours. Formazan crystals were dissolved with 140 ml of 0.04 HCl-isopropanol. The optical density of the wells was measured with a microplate reader at 540 nm.
Apoptosis assay: Cells (2×10^5 cells/ml) were seeded in 24-well plates and incubated with a derivative of a chemotherapeutic agent according to the present embodiments, as specified, for 24 hours. The cells were thereafter collected and double-stained with annexin V-FITC and propidium iodide, according to the manufacturer's instructions (MBL, Japan). Alive, apoptotic and total dead cells were quantitated by flow cytometry using a FACS calibur cytometer (Becton Dickinson).

LS-1034 = assay: Proliferation assay, LS-1034 cells; format: cell-based, human
Text: (§2) Cells: The human breast cancer cell lines MCF-7 and MCF-7 DX, were obtained from Dr. R. Supino (Laboratorio Oncologia, Milano, Italy); the murine 3LLD122 highly metastatic Lewis lung carcinoma cell line was obtained from Dr. Eisenbach L, the Weizmann Inst., Israel. The following cell lines were purchased from the ATCC, USA: CT-26, an N-nitroso-N-methylurethane-(NNMU) induced murine (BALB-C) colon carcinoma; Panc02, a mouse (C57/Bl) pancreas adenocarcinoma; HT-49, a human colorectal adenocarcinoma; LS1034, a multidrug resistant human colorectal carcinoma; BxPC-3 human pancreas adenocarcinoma; MES-SA and MES-SA-DXS, human uterine sarcoma sensitive and multidrug resistant, respectively; and Human prostate carcinoma 22RV1, a subclone of CWR22 cells.
(§3) The cells were maintained in DMEM growth medium supplemented with 10% heat inactivated fetal calf serum, 2 mM glutamine, penicillin (250 units/ml) and streptomycin (125 μg/ml) in a humidified 5% CO2/air atmosphere at 37° C.
as §1
(§4) IC50 and IC90 values were determined from the best-fitted curve where the percentages of survival were 50 or 90 respectively.

CT-26 = assay: Proliferation assay, CT-26 cells; format: cell-based, murine; settings: CT-26
Text: as §2, §3, §1, §4

[1] = system: sensitive and resistant uterine cancer cells (MES-SA, MES-SA DXS); assay: Proliferation/survival, sensitive and resistant uterine cancer cells (both lines); format: cell-based, human
Text: as §2, §1, §4

Panc 02 = assay: Proliferation assay, Panc 02 cells; format: cell-based; settings: Mus musculus, Panc02
Text: as §2, §3, §1, §4

BXPC-3 = assay: Proliferation assay, BXPC-3 cells; format: cell-based, human
Text: as §2, §3, §1, §4

various cell lines = assay: Dose response studies in various cell lines, absence and presence of semicarbazide; format: cell-based
Description: as §1
Semicarbazide sensitive amine oxidase is a source of formaldehyde and is therefore a marker for the effect of formaldehyde. It has been shown that semicarbazide traps formaldehyde and reduces its concentration inside the cell (Nudelman et al. J. Med. Chem., 2005, 48, 1047-1054). Thus, the critical role of formaldehyde can be confirmed by reversal of formaldehyde-mediated effects by the addition of semicarbazide.
Tables 3 and 4 below, as well as FIGS. 7A, 7B and 8A-8D present the dose response studies performed with various cell lines in the absence and presence of semicarbazide, the formaldehyde trapping agent.

[2] = system: colon cancer cells (LS-1034 and HT-29); assay: Survival of colon cancer cells (both lines); format: cell-based, human
Description: (§5) Cells: The human breast cancer cell lines MCF-7 and MCF-7 DX, were obtained from Dr. R. Supino (Laboratorio Oncologia, Milano, Italy); the murine 3LLD122 highly metastatic Lewis lung carcinoma cell line was obtained from Dr. Eisenbach L, the Weizmann Inst., Israel. […]
as §1, with “After 3 days, the cells were rinsed with PBS, and fixed with ethanol (70%) for 30 minutes.” left out, “MTT solution (10 ml of 5 mg/ml MTT (Sigma) in PBS) was added, and the plate was incubated for 3 hours. Formazan crystals were dissolved with 140 ml of 0.04 HCl-isopropanol.” left out
as §4

MES SA DXS = assay: Proliferation assay, MES SA DXS cells; format: cell-based, human; settings: for IC50 / IC90: MES SA DXS
Text: as §2, §3, §1, §4

MES SA = assay: Proliferation assay, MES SA cells; format: cell-based, human
Text: as §2, §3, §1, §4

histone acetylation = assay: Histone acetylation in treated cells; format: cell-based
Description: Western blot analysis: Whole cell tissue lysates or acid extracted histones were solubilized in a 4-fold concentrated sample buffer and […] protein samples were separated by SDS-PAGE. The proteins were transferred to a nitrocellulose membrane (Schleicher & Schuell, Germany) and probed with the primary antibodies as indicated, followed by incubation with an HRP-goat anti-rabbit IgG secondary antibody. Visualization of the bound HRP-goat anti-rabbit IgG was performed using the enhanced chemiluminescence that was done using Western Blotting Luminol reagent (cat No. SC-2048, Santa Cruz, Calif., US). Equal amounts of reagent A and B were mixed, and added to the nitrocellulose membrane for 1 minute. Excess liquid was absorbed and the membrane was exposed for 5 minutes to Chemiluminescence BioMax light film (cat. No. 868 9358, Kodak, USA). The intensity of the bands was measured with a Versa Doc instrument with Quantityl program (Bio-Rad, USA). The fold increase of each specific protein was determined by the ratio of band intensities of treated and untreated cells, normalized to loading control (actin or histone H3).

HT-29 = assay: Proliferation assay, HT-29 cells; format: cell-based, human
MCF-7 DX = assay: Proliferation assay, MCF-7 DX cells; format: cell-based, human
Description: as §5
as §1, with “After 3 days, the cells were rinsed with PBS, and fixed with ethanol (70%) for 30 minutes.” left out, “MTT solution (10 ml of 5 mg/ml MTT (Sigma) in PBS) was added, and the plate was incubated for 3 hours. Formazan crystals were dissolved with 140 ml of 0.04 HCl-isopropanol.” left out
as §4

Structure (SMILES): O=c1cc[nH]c(=O)[nH]1 [uracil, reference compound]
effect on cancer cell viability (% of control) (colon carcinoma cells): no effect

IC50 (Panc 02): 46 ± 3 µM
IC90 (Panc 02): 149 ± 19 µM
IC50 (BXPC-3; + SC 500 μM): 88 ± 6 µM
IC90 (BXPC-3; + SC 500 μM): 280 ± 36 µM
IC50 (BXPC-3; Homo sapiens): 74 ± 4 µM
IC90 (BXPC-3; Homo sapiens): 141 ± 5 µM
IC90 (HT-29; HT-29, + SC 500 μM): 138 ± 30 µM
IC50 (HT-29; HT-29, + SC (semicarbazide) 500 μM): 51 ± 5 µM
IC90 (HT-29; Homo sapiens, HT-29): 84 ± 21 µM
IC50 (HT-29; Homo sapiens, HT-29, HT-29): 35 ± 5 µM
Structure (SMILES): CCCC(=O)OCn1c(=O)c(F)cn(C2CCCO2)c1=O [AN-420, 5-fluoro-2,3-dihydro-3-((R)-tetrahydrofuran-2-yl)-2,6-dioxopyrimidin-1(6H)-yl)methyl butyrate]
IC90 (LS-1034; Homo sapiens, LS-1034): 79 ± 23 µM
IC50 (LS-1034; Homo sapiens, LS-1034, LS-1034): 42 ± 7 µM
IC50 (LS-1034; LS-1034, + SC 500 μM): 52 ± 8 µM
IC90 (LS-1034; LS-1034, + SC 500 μM): 105 ± 29 µM
effect on cancer cell viability (% of control) (colon carcinoma cells): significantly more effective than tegafur
IC50 (CT-26; + SC 500 μM): 34 ± 10 µM
IC90 (CT-26; + SC 500 μM): 94 ± 30 µM
IC50 (CT-26; Mus musculus, CT26): 27 ± 4 µM
IC90 (CT-26; Mus musculus, CT26): 76 ± 14 µM
maximal cell killing achieved [1]: 100%
reduction of cell killing by co-treatment with semicarbazide (various cell lines; semicarbazide 0.5 mM): substantially reduced the cell killing
fold more potent than tegafur, based on IC90 values [2]: ≥ 10 fold
IC50 (MES SA DXS; Homo sapiens): 54 ± 5 µM
IC90 (MES SA DXS; Homo sapiens): 95 ± 8 µM
IC50 (MES SA DXS; + SC 500 μM): 115 ± 29 µM
IC90 (MES SA DXS; + SC 500 μM): 312 ± 116 µM
IC50 (MES SA; + SC 500 μM): 92 ± 14 µM
IC90 (MES SA; + SC 500 μM): 214 ± 80 µM
IC50 (MES SA; Homo sapiens): 79 ± 22 µM
IC90 (MES SA; Homo sapiens): 177 ± 77 µM
histone acetylation in treated cells (histone acetylation): increase of histone acetylation

Structure (SMILES): NNC(N)=O [Semicarbazide, semicarbazide, reference compound]
effect of semicarbazide alone on the cells (various cell lines; 0.5 mM, absence of chemotherapeutic agents): did not affect the cells

IC50 (MCF-7 DX; Homo sapiens, MCF7/DX, MCF-7 DX, 7 independent experiments): 392 ± 40 µM
Structure (SMILES): COc1cccc2c1C(=O)c1c(O)c3c(c(O)c1C2=O)C[C@@](O)(C(=O)CO)C[C@@H]3O[C@H]1C[C@H](N)[C@H](O)[C@H](C)O1 [Doxorubicin]
fold more resistant to doxorubicin, MCF-7 DX compared with MCF cells (MCF-7 DX): approximately 7 fold
fold decrease in the inhibitory effect on proliferation, MES-SA DXS compared with the isogenetic non-resistant cell line (MES SA DXS): approximately 30 fold
